Laboratory results taken from patent US20200061038A1, “THERAPEUTIC AGENT FOR FIBROSIS AND INHIBITOR OF NUCLEAR TRANSLOCATION OF PHOSPHORYLATED SMAD” (NATIONAL UNIVERSITY CORPORATION CHIBA UNIVERSITY, priority 2016, published 2020).

Columns and labels:
[1] = system: lactosylceramide synthase; assay: Lactosylceramide synthesis activation test; type: cell-based, human; details: HFL1 cells; PPMP 3 μM, NB-DNJ 100 μM applied 30 minutes before TGFβ1 (10 ng/mL) stimulation
Procedure: The experiment was conducted by referring to Chatterjee S, Pandey A. The Yin and Yang of lactosylceramide metabolism: implications in cell function. Biochim Biophys Acta. 2008 March; 1780 (3); 370-82.
The sample was put through quantitative determination of protein, and then 300 μM of […], 100 μM of uridine diphosphate galactose (UDP-Gal, containing 7.5×10^5 dpm of [^3H] UDP-Gal), and reaction buffer, were added to 50 μL of sample, to a final volume of 100 μL/tube. This reaction sample was incubated for 2 hours at 37° C., and finally 50 mM of KCl and 25 mM of EDTA were added to stop the reaction. Thereafter, lipids were extracted from the sample according to the Bligh-Dyer method, and all lipids were expanded using TLC (chloroform:methanol:water=100:42:6). The separated lipids were stained using iodine gas, silica gel at the same position as the lactosylceramide target was scraped off, and its radiation activity was measured using a liquid scintillation counter (Aloka LSC-5100 manufactured by Hitachi-Aloka Medical), and then the amount of synthesized lactosylceramide was calculated. It should be noted that, for the background sample(control), a sample with zero incubation time was used.
Whether or not TGFβ1 treatment would increase the synthesis of lactosylceramide was examined in vitro. […]

αSMA [2] = assay: αSMA expression (western blot) in TGFβ1-stimulated HFL1 cells; type: cell-based, human; details: PPMP 3 μM, NB-DNJ 100 μM applied 30 minutes before TGFβ1 (10 ng/mL), 24 hours
Procedure: Human pulmonary fibroblast (HFL1) (ATCC CCL-153) cells were cultured under the conditions of 95% air-5% CO2 and 37° C., using a Dulbecco's Modified Eagle Medium (DMEM) containing 10% fetal bovine serum (FBS), 100 μg/mL streptomycin, and 66.7 μg/mL penicillin.
How an increase in lactosylceramide synthesis activity due to TGFβ1 affects the fibrosing of tissues was examined based on the expression level of αSMA, which is a fibrosing marker protein.

Smad2 = Smad2 nuclear localization (immunofluorescent staining, confocal) in HFL1 cells; type: cell-based, human; details: pretreatment PPMP 3 μM or NB-DNJ 100 μM, TGFβ1 10 ng/mL, 3 hours
Procedure: For immunostaining of Smad and phosphorylated Smad, ribonuclease A (RNase, Worthington Biochemical) (200 μg/mL, room temperature, 30 minutes) and propidium iodide (PI, Cayman Chemical) (20 μg/mL, room temperature, 30 minutes) were applied to stain the nucleus, and the stained images were observed using a confocal microscope (FV500 manufactured by Olympus).
When localization of Smad2/3 was observed, on the other hand, Smad2/3 accumulated in the nucleus in 3 hours after the single stimulation of TGFβ1 (10 ng/mL).

PKCδ = assay: Translocation of PKCδ into the cellular membrane in HFL1 cells; type: cell-based, human; details: PPMP 3 μM, Rottlerin 1 μM applied beforehand, two hours after TGFβ1 10 ng/mL
Procedure: HFL1 cells were inoculated onto a 3.5-cm glass-bottom dish by 1.0×10^4 cells/dish, and then cultured in 2.0 mL of DMEM containing 10% FBS, to achieve 70% confluence. The cells were washed in HBSS containing 0.1% BSA, and then cultured in DMEM containing 0.1% BSA for 48 hours without serum.
Thereafter, the medium was replaced by a DMEM containing 0.1% BSA, and stimulation was given for a specified period using each reagent (each inhibitor was applied 30 minutes before the stimulant), after which each sample was fixed with 4% paraformaldehyde (PFA) at 4° C. for 15 minutes. Thereafter, as deemed appropriate, the sample was permeabilized (0.3% saponin, room temperature, 1 hour) and blocked (3% BSA, room temperature, 1 hour), with a primary antibody applied overnight at 4° C., and a secondary antibody applied for 1 hour at room temperature. For immunostaining of Smad and phosphorylated Smad, ribonuclease A (RNase, Worthington Biochemical) (200 μg/mL, room temperature, 30 minutes) and propidium iodide (PI, Cayman Chemical) (20 μg/mL, room temperature, 30 minutes) were applied to stain the nucleus, and the stained images were observed using a confocal microscope (FV500 manufactured by Olympus).
In general, activation of PKC is observed in the form of its translocation into the cellular membrane; accordingly, involvement of lactosylceramide was examined using the translocation of PKCδ into the cellular membrane as an indicator.

[3] = system: patient's pulmonary fibroblast cells; assay: αSMA expression (western blot) in patient's pulmonary fibroblast cells; type: cell-based, human; details: PPMP 0.5 μM, 1.0 μM; NB-DNJ 100 μM, 200 μM; cultured 48 hours
Procedure: Post-operative lung tissues were obtained from a lung transplant patient who was suffering from a serious case of pleuroparenchymal fibroelastosis.
The lung tissues were shredded, rinsed with phosphate-buffered saline (PBS), and then incubated at 37° C. for 15 minutes under gentle shaking, using 1 mg/ml collagenase type I (Worthington, Lakewood, N.J., USA), 0.5 mg/ml disperse (Life Technologies), 2 U/ml DNase (QIAGEN, Valencia, Calif., USA), 0.1 mg/ml streptomycin, and 100 U/ml penicillin.
The tissues were washed twice in DMEM, and then transferred into an 80-cm^2 culture flask and cultured at 37° C. in 5% CO2.
Cell growth was monitored every week, with the culture medium changed every four days. Once the flask reached confluent cultures, the cells were collected as cells at passage 0, and the cells obtained at passage 3 were used in the experiment as the patient's pulmonary fibroblast cells.
Patient's pulmonary fibroblast cells were cultured under the conditions of 95% air-5% CO2 and 37° C., using a Dulbecco's Modified Eagle Medium (DMEM) containing 10% fetal bovine serum (FBS), 100 μg/mL streptomycin, and 66.7 μg/mL penicillin.

Smad2/3 = details: HFL1 cells; PPMP 3 μM applied 30 minutes before TGFβ1 (10 ng/mL) treatment; over time
Procedure: HFL1 cells were inoculated onto a six-well plate by 1.0×10^5 cells/well, and then cultured in 2.0 mL of DMEM containing 10% FBS, to achieve 70% confluence. The cells were washed using Hanks' balanced salt solution (HBSS) containing 0.1% bovine serum albumin (BSA) (4.2 mM NaHCO3, 137 mM NaCl, 5.36 mM KCl, 0.4 mM MgSO4.7H2O, 0.34 mM Na2HPO4.12H2O, 5.55 mM glucose, 0.44 mM KH2PO4, 0.72 mM CaCl2.H2O, pH=7.4), and then cultured in a DMEM containing 0.1% BSA for 48 hours without serum. […]
The cells were crushed according to the vortex method, centrifuged under the conditions of 15000 rpm and 4° C. for 30 minutes, and the supernatant was taken as a sample. Quantitative determination of protein was performed according to the Bradford method, and a specified amount of protein was separated by SDS-polyacrylic amide gel electrophoresis. […]
Thereafter, the PVDF film was soaked in an ECL solution and fluorometric detection was performed using an image capture/analysis system (ChemiDocMP System manufactured by Bio-Rad). The detected bands were converted to numerical values using image processing software (ImageJ).

αSMA [4] = assay: Bleomycin-induced pulmonary fibrosis mouse model: lung αSMA western blot; type: in vivo, C57BL/6J mice; details: mice; 20 mg/kg NB-DNJ into the bronchial tubes on days 7, 8, 9 after bleomycin; lungs on 14th day
Procedure: 50 μL of 3 mg/kg bleomycin hydrochloride/saline solution (Nippon Kayaku Co., Ltd.) was administered through the bronchial tubes to C57BL/6J mice (male, 8 to 12 weeks old) under tribromoethanol-ether anesthesia, to prepare mouse models for pulmonary fibrosis. 50 μL of saline solution was administered in the same manner to a control group not treated with bleomycin hydrochloride.
Seven, eight and nine days after the administration of bleomycin, 50 μL of 20 mg/kg NB-DNJ/saline solution was administered into the bronchial tubes of the mice under tribromoethanol-ether anesthesia. 50 μL of saline solution was administered into the bronchial tubes to a control group of mice not administered with NB-DNJ.
On the 14th day after the administration of bleomycin, each mouse was subjected to thoracotomy under deep ether anesthesia, and its entire body was perfused with PBS from the left ventricle using a syringe needle, while blood was removed from the lungs through the right ventricle, and the lungs were removed.
Thereafter, the tissues were further pulverized using a homogenizer, and centrifuged at 15000 rpm and 4° C. for 30 minutes.

[5] = system: bleomycin-induced fibrosing of the lung; assay: Bleomycin-induced pulmonary fibrosis mouse model: hematoxylin eosin-stained lung slices; type: in vivo, C57BL/6J mice; details: mice, lungs on 14th day
Procedure: 50 μL of 3 mg/kg bleomycin hydrochloride/saline solution (Nippon Kayaku Co., Ltd.) was administered through the bronchial tubes to C57BL/6J mice (male, 8 to 12 weeks old) under tribromoethanol-ether anesthesia, to prepare mouse models for pulmonary fibrosis. 50 μL of saline solution was administered in the same manner to a control group not treated with bleomycin hydrochloride. Seven, eight and nine days after the administration of bleomycin, 50 μL of 20 mg/kg NB-DNJ/saline solution was administered into the bronchial tubes of the mice under tribromoethanol-ether anesthesia. 50 μL of saline solution was administered into the bronchial tubes to a control group of mice not administered with NB-DNJ. For 7 to 13 consecutive days after the administration ofbleomycin, 0.2 mL of 600 mg/kg NB-DNJ/saline solution was orally administered daily (once a day). As control group mice which were not administrated with NB-DNJ, 0.2 mL of saline solution was orally administered. On the 14th day after the administration of bleomycin, each mouse was subjected to thoracotomy under deep ether anesthesia, and its entire body was perfused with PBS from the left ventricle using a syringe needle, while blood was removed from the lungs through the right ventricle, and the lungs were removed. The lungs were soaked in 4% paraformaldehyde and fixed overnight at 4° C. […]

Compound | activity of the lactosylceramide synthase after TGFβ1 stimulation [1] | increase in the αSMA expression level due to TGFβ1 (αSMA [2]) | accumulation of Smad2 in the nucleus due to TGFβ1 (Smad2) | translocation of PKCδ into the cellular membrane due to TGFβ1 (PKCδ) | expression of αSMA in patient's pulmonary fibroblast cells [3] | phosphorylation levels of Smad2/3 (Smad2/3) | expression of αSMA in lung in the presence of bleomycin (αSMA [4]) | bleomycin-induced fibrosing of the lung, bronchial-tube-administration ([5]; 20 mg/kg NB-DNJ into the bronchial tubes on days 7, 8, 9 after bleomycin) | bleomycin-induced fibrosing of the lung, oral administration ([5]; 600 mg/kg NB-DNJ orally once a day, days 7 to 13 after bleomycin)
1-phenyl-2-hexadecanoyl amino-3-morpholino-1-propanol [PPMP] | suppressed the activity of the lactosylceramide synthase significantly | suppressed increase in the αSMA expression level | suppressed the accumulation of Smad2 in the nucleus | translocation of PKCδ into the cellular membrane was suppressed | the expression of αSMA is suppressed | did not change the phosphorylation levels of Smad2/3 over time |  |  | 
CCCCN1C[C@H](O)[C@@H](O)[C@H](O)[C@H]1CO [NB-DNJ, N-butyl deoxynojirimycin] | suppressed the activity of the lactosylceramide synthase significantly | suppressed increase in the αSMA expression level | suppressed the accumulation of Smad2 in the nucleus |  | the expression of αSMA is suppressed |  | the expression of αSMA is suppressed | suppress the bleomycin-induced fibrosing of the lung | suppress the bleomycin-induced fibrosing of the lung
